Reference: article PMC3166015 (Emerging Infectious Diseases, 2011)

Target: NA activity of oseltamivir-resistant (OR, H275Y) pandemic (H1N1) 2009 virus (Influenza A virus, UniProt C3W5S3, H275Y)
Type: biochemical

| Structure (SMILES) | susceptibility by NA inhibition assay | peramivir susceptibility |
| --- | --- | --- |
| CC(=O)N[C@H]1[C@H]([C@H](O)[C@H](O)CO)OC(C(=O)O)=C[C@@H]1N=C(N)N [Zanamivir, zanamivir] | sensitive |  |
| CCC(CC)[C@H](NC(C)=O)[C@@H]1[C@H](O)[C@@H](C(=O)O)C[C@H]1N=C(N)N [peramivir] |  | cross-resistance |
